Assay results published in patent US20220033784A1 (priority 2020, published 2022).

Experiments:
[1] = tested on: HH cells (IL-2 CD122/CD132 (β/γ) receptor complex); assay: pSTAT5 ELISA in HH cells; format: cell-based; settings: for Selectivity HH/iTreg: higher value = greater selectivity for HH cells; for EC50: pSTAT5 level 50% of maximum, InstantOne ELISA, read-out: EC50 HH T cell
Description: (§1) The ability of the IL-2 variants to activate HH cells and iTregs was measured by monitoring relative changes in phosphorylated STAT5 (pSTAT5) in response to treatment of the cells with the IL-2 variants. pSTAT5 is known to be a downstream consequence of IL-2 signaling. HH T cells (ATCC CRL-2105) are a line of T cells that lack the alpha chain of the IL-2 receptor complex, but that contain the beta and gamma chains of the IL-2 receptor complex. iTreg cells were prepared from Fresh Leuko Paks obtained from […] Technologies (CAT #70500.1, Donor #D001003551).
(§2) For IL-2 activation, the HH cells and iTreg cells were plated at 2*10e6 cells/well in 50 ul serum-free RPMI 1640 media (Gibco), and allowed to rest at 37° C. After resting, cells were treated the IL-2 molecules listed above, and cells were then pelleted by centrifugation.
(§3) Following treatment with the IL-2 molecules, cell induction status was evaluated by the InstantOne ELISA pSTAT5 detection kit (Invitrogen).

CD8 T cells = assay: pSTAT5 flow cytometry in hPBMCs: CD8 T cells; format: cell-based, human; settings: for Selectivity CD8/Treg: larger numbers = greater selectivity for CD8 T cells over Treg cells; for EC50: pSTAT5 MFI in hPBMCs, 20 minutes at 37° C., read-out: EC50 CD8 T cell
Description: (§4) In this experiment, the ability of the IL-2 variants to activate CD8 T cells, NK cells, and Treg cells was measured by monitoring relative changes in pSTAT5 in response to treatment of the cells with the IL-2 variants. The IL-2 variants tested in this experiment were each fused to a human IgG Fc domain as described in Example 15. […]; Blood from healthy volunteers was taken and hPBMCs were isolated using a ficoll-paque (GE Healthcare) gradient, washed with PBS to remove platelets, and cleared of red blood cells using ACK lysis buffer (Gibco). Cells were then plated at 1*10e6 cells/well in 90 uL serum-free RPMI 1640 media (Gibco) and allowed to rest for 2-4 hours at 37° C. After resting, cells were treated the IL-2 molecules listed above (10 uL), at the indicated concentrations for 20 minutes at 37° C., and 25 uL 20% PFA was immediately added with gentle pipetting. Cells were then pelleted by centrifugation and aspirated (400 RCF, 7 minutes).
(§5) Phosflow Perm Buffer III (BD Biosciences) was added (200 uL), and the cells were mixed gently by pipetting up and down once to prevent clumping. Cells were then washed twice with 200 uL FACS buffer followed by pelleting by centrifugation (400 RCF, 7 minutes). Cells were in resuspended in 200 uL FACS buffer and incubated with the antibodies in Table D and Table E per standard procedure then suspended in 200 uL FACS buffer for FACS analysis. Data was analyzed using FlowJo v10 software.

Treg cells = assay: pSTAT5 flow cytometry in hPBMCs: Treg cells; format: cell-based, human; settings: pSTAT5 MFI in hPBMCs, 20 minutes at 37° C.; read-out: EC50 Treg cell
Description: as §4, §5

NK cells = assay: pSTAT5 flow cytometry in hPBMCs: NK cells; format: cell-based, human; settings: for Selectivity NK/Treg: larger numbers = greater selectivity for NK cells over Treg cells; for EC50: pSTAT5 MFI in hPBMCs, 20 minutes at 37° C., read-out: EC50 NK cell
Description: as §4, §5

[2] = tested on: iTreg cells (IL-2 CD25/CD122/CD132 (α/β/γ) receptor complex); assay: pSTAT5 ELISA in iTreg cells; format: cell-based; settings: pSTAT5 level 50% of maximum, InstantOne ELISA; read-out: EC50 iTreg cell
Description: as §1, §2, §3

Fc-IL2-R38N:L40T
Selectivity HH/iTreg [1]: 6.75 × 10^−4 | EC50 [1]: 163 nM | Selectivity CD8/Treg (CD8 T cells): 0.3 | EC50 (CD8 T cells): 26.5 nM | EC50 (Treg cells): 7.89 nM | Selectivity NK/Treg (NK cells): 2.58 | EC50 (NK cells): 3.06 nM | EC50 [2]: 0.11 nM

Fc-IL2-E62N:K64T
Selectivity HH/iTreg [1]: 3.84 × 10^−4 | EC50 [1]: 52.1 nM | Selectivity CD8/Treg (CD8 T cells): 0.09 | EC50 (CD8 T cells): 25.5 nM | EC50 (Treg cells): 2.26 nM | Selectivity NK/Treg (NK cells): 0.62 | EC50 (NK cells): 3.65 nM | EC50 [2]: 0.02 nM

Fc-IL2-K35N
Selectivity CD8/Treg (CD8 T cells): 0.00284 | EC50 (CD8 T cells): 24.6 nM | EC50 (Treg cells): 0.07 nM | Selectivity NK/Treg (NK cells): 0.0276 | EC50 (NK cells): 2.54 nM

Fc-IL2-L72N:Q74T
Selectivity HH/iTreg [1]: 8.4 × 10^−4 | EC50 [1]: 47.6 nM | Selectivity CD8/Treg (CD8 T cells): 0.1 | EC50 (CD8 T cells): 22.1 nM | EC50 (Treg cells): 2.29 nM | Selectivity NK/Treg (NK cells): 0.98 | EC50 (NK cells): 2.33 nM | EC50 [2]: 0.04 nM

Fc-IL2-T41N:K43T
Selectivity HH/iTreg [1]: 2.69 × 10^−4 | EC50 [1]: 37.2 nM | Selectivity CD8/Treg (CD8 T cells): 0.07 | EC50 (CD8 T cells): 31.2 nM | EC50 (Treg cells): 2.13 nM | Selectivity NK/Treg (NK cells): 0.7 | EC50 (NK cells): 3.05 nM | EC50 [2]: 0.01 nM
